The NIST ThermoML archive (doi:10.1016/j.tca.2013.08.031)

Details: for mass density: isochoric method

CCC(C)O (centres undefined) [butan-2-ol]
Details | Critical density [kg/m3] | Critical temperature [K] | mass density [kg/m3]
306.95 K, Liquid | – | – | 794.06
335.35 K, Liquid | – | – | 769.05
367.55 K, Liquid | – | – | 735.98
408.51 K, Liquid | – | – | 683.53
433.35 K, Liquid | – | – | 648.53
463.85 K, Liquid | – | – | 598.18
492.87 K, Liquid | – | – | 538.17
504.95 K, Gas | – | – | 76.44
514.26 K, Gas | – | – | 95.93
515.15 K, Liquid | – | – | 474.07
522.2 K, Gas | – | – | 117
527.92 K, Gas | – | – | 142.27
529.41 K, Liquid | – | – | 403.55
533.73 K, Gas | – | – | 184.89
534.55 K, Liquid | – | – | 347.06
534.68 K, Gas | – | – | 198.25
535.83 K, Gas | – | – | 245.67
535.83 K, Liquid | – | – | 301.19
535.89 K, Liquid | – | – | 286.65
535.93 K, Liquid | – | – | 284.93
535.94 K, Liquid | – | – | 279.19
535.95 K, Liquid | – | – | 276.45
Liquid, DSC | 276.4 | – | –
Liquid, DTA | – | 535.95 | –
